These are literature values, as cited in PubChem BioAssay AID1259409 (Chemical Carcinogenesis Research Information System (CCRIS), 2018).

Molecules are shown by their SMILES.

This data set concerns rodent chemically induced tumor inhibition, incidence and multiplicity. Nature of the data set: CCRIS tumor inhibitor studies.

For `CCCOC(=O)c1cc(O)c(O)c(O)c1`, the “tumour outcome (control, treated, inhibition, significance)” value (Carcinogen: 1,2-DIMETHYLHYDRAZINE, 540-73-8, Dose [Inhibitor]: 0, 1% IN DIET BEGINNING 1 WK POST LAST CARCINOGEN DOSE AND CONTINUING FOR 36 WK (STUDY DURATION: 40 WK), Route [Inhibitor]: ORAL, Species: RAT, Strain/Sex: F344/MALE, Target Tissue: Type of Lesion: COLON: ADENOMA, Dose [Carcinogen]: 20 MG/KG 1/WK FOR 4 WK, Promoter: NONE USED) is recorded as 1/20 (5%), 5/20 (25%), -400%, not calculated; the “tumour outcome (control, treated, inhibition, significance)” value (Carcinogen: 1,2-DIMETHYLHYDRAZINE, 540-73-8, Dose [Inhibitor]: 0, 1% IN DIET BEGINNING 1 WK POST LAST CARCINOGEN DOSE AND CONTINUING FOR 36 WK (STUDY DURATION: 40 WK), Route [Inhibitor]: ORAL, Species: RAT, Strain/Sex: F344/MALE, Target Tissue: Type of Lesion: COLON: CARCINOMA, Dose [Carcinogen]: 20 MG/KG 1/WK FOR 4 WK, Promoter: NONE USED) was 6/20 (30%), 6/20 (30%), 0%; the “tumour outcome (control, treated, inhibition, significance)” value (Carcinogen: 7,12-DIMETHYLBENZ(A)ANTHRACENE, 57-97-6, Dose [Inhibitor]: 0.3% IN HIGH SATURATED FAT DIET (STUDY DURATION: 32 WK), Route [Inhibitor]: ORAL, Species: RAT, Strain/Sex: SPRAGUE-DAWLEY/FEMALE, Target Tissue: Type of Lesion: MAMMARY GLAND: PARENCHYMAL CARCINOMA, Dose [Carcinogen]: 10 MG IN 1 ML CORN OIL ONCE AT 50 D OF AGE, Promoter: NONE USED) is on record as 20/30 (67%), 8/30 (27%), 60%, not calculated; the “tumour outcome (control, treated, inhibition, significance)” value (Carcinogen: 7,12-DIMETHYLBENZ[A]ANTHRACENE, 57-97-6, Dose [Inhibitor]: 0, 20 UMOL IN 0.4 ML ACETONE 20 MIN PRIOR TO EACH PROMOTER DOSE (STUDY DURATION: 47 WK), Route [Inhibitor]: DERMAL, Species: MOUSE, Strain/Sex: CF-1/FEMALE, Target Tissue: Type of Lesion: SKIN: CARCINOMA, Dose [Carcinogen]: 100 NMOL IN 0.2 ML ACETONE ONCE) is listed as 67%, 8%, 88%, not calculated; the “tumour outcome (control, treated, inhibition, significance)” value (Carcinogen: 7,12-DIMETHYLBENZ[A]ANTHRACENE, 57-97-6, Dose [Inhibitor]: 0, 20 UMOL IN 0.4 ML ACETONE 20 MIN PRIOR TO EACH PROMOTER DOSE (STUDY DURATION: 47 WK), Route [Inhibitor]: DERMAL, Species: MOUSE, Strain/Sex: CF-1/FEMALE, Target Tissue: Type of Lesion: SKIN: PAPILLOMA, Dose [Carcinogen]: 100 NMOL IN 0.2 ML ACETONE ONCE) is 94%, 66%, 30%, not calculated; the “tumour outcome (control, treated, inhibition, significance)” value (Carcinogen: 7,12-DIMETHYLBENZ[A]ANTHRACENE, 57-97-6, Dose [Inhibitor]: 0.3% IN HIGH POLYUNSATURATED FAT DIET (STUDY DURATION: 32 WK), Route [Inhibitor]: ORAL, Species: RAT, Strain/Sex: SPRAGUE-DAWLEY/FEMALE, Target Tissue: Type of Lesion: MAMMARY GLAND: PARENCHYMAL CARCINOMA, Dose [Carcinogen]: 10 MG IN 1 ML CORN OIL ONCE AT 50 D OF AGE, 1X, Promoter: NONE USED) is given as 30/30 (100%), 23/30 (77%), 23%, not calculated. Also, the “tumour outcome (control, treated, inhibition, significance)” value by setting is: (Carcinogen: 7,12-DIMETHYLBENZ[A]ANTHRACENE, 57-97-6, Dose [Inhibitor]: 0.3% IN HIGH POLYUNSATURATED FAT DIET DAILY STARTING 29 D BEFORE CARCINOGEN TREATMENT AND CONTINUING FOR THE DURATION OF, Route [Inhibitor]: ORAL, Species: RAT, Strain/Sex: SPRAGUE-DAWLEY/FEMALE, Target Tissue: Type of Lesion: MAMMARY GLAND: ADENOCARCINOMA, Dose [Carcinogen]: 10 MG IN 1 ML STRIPPED CORN OIL ONCE AT AGE 50 D, Promoter: NONE USED) 100%, 70%, 30%, not calculated; (Carcinogen: 7,12-DIMETHYLBENZ[A]ANTHRACENE, 57-97-6, Dose [Inhibitor]: 0.3% IN HIGH SATURATED FAT DIET DAILY STARTING 29 D BEFORE CARCINOGEN TREATMENT AND CONTINUING FOR THE DURATION OF THE S, Route [Inhibitor]: ORAL, Species: RAT, Strain/Sex: SPRAGUE-DAWLEY/FEMALE, Target Tissue: Type of Lesion: MAMMARY GLAND: ADENOCARCINOMA, Dose [Carcinogen]: 10 MG IN 1 ML STRIPPED CORN OIL ONCE AT AGE 50 D, Promoter: NONE USED) 65%, 35%, 46%, not calculated; (Carcinogen: 7,12-DIMETHYLBENZ[A]ANTHRACENE, 57-97-6, Dose [Inhibitor]: 0.3% IN LOW FAT DIET (STUDY DURATION: 32 WK), Route [Inhibitor]: ORAL, Species: RAT, Strain/Sex: SPRAGUE-DAWLEY/FEMALE, Target Tissue: Type of Lesion: MAMMARY GLAND: PARENCHYMAL CARCINOMA, Dose [Carcinogen]: 10 MG IN 1 ML CORN OIL ONCE AT 50 D OF AGE, Promoter: NONE USED) 7/30 (23%), 4/30 (13%), 43%, not calculated; (Carcinogen: 7,12-DIMETHYLBENZ[A]ANTHRACENE, 57-97-6, Dose [Inhibitor]: 0.3% IN LOW FAT DIET DAILY STARTING 29 D BEFORE CARCINOGEN TREATMENT AND CONTINUING FOR THE DURATION OF THE STUDY (STUDY, Route [Inhibitor]: ORAL, Species: RAT, Strain/Sex: SPRAGUE-DAWLEY/FEMALE, Target Tissue: Type of Lesion: MAMMARY GLAND: ADENOCARCINOMA, Dose [Carcinogen]: 10 MG IN 1 ML STRIPPED CORN OIL ONCE AT AGE 50 D, Promoter: NONE USED) 35%, 15%, 57%, not calculated; (Carcinogen: 7,12-DIMETHYLBENZ[A]ANTHRACENE, 57-97-6, Dose [Inhibitor]: 1.0% IN POWDERED DIET BEGINNING 1 WK POST CARCINOGEN DOSE FOR 51 WK (STUDY DURATION: 52 WK), Route [Inhibitor]: ORAL, Species: RAT, Strain/Sex: SPRAGUE-DAWLEY/FEMALE, Target Tissue: Type of Lesion: EAR DUCT: BENIGN TUMOR, Dose [Carcinogen]: 2.5 MG/100 G BW IN 0.5 ML SESAME OIL ONCE, Promoter: NONE USED) 7/19 (37%), 3/20 (15%), 59%, not calculated; (Carcinogen: 7,12-DIMETHYLBENZ[A]ANTHRACENE, 57-97-6, Dose [Inhibitor]: 1.0% IN POWDERED DIET BEGINNING 1 WK POST CARCINOGEN DOSE FOR 51 WK (STUDY DURATION: 52 WK), Route [Inhibitor]: ORAL, Species: RAT, Strain/Sex: SPRAGUE-DAWLEY/FEMALE, Target Tissue: Type of Lesion: MAMMARY GLAND: CARCINOMA, Dose [Carcinogen]: 2.5 MG/100 G BW IN 0.5 ML SESAME OIL ONCE, Promoter: NONE USED) 6/19 (32%), 1/20 (5%), 84%, p<0.05. For the same compound, the “tumour outcome (control, treated, inhibition, significance)” value (Carcinogen: 7,12-DIMETHYLBENZ[A]ANTHRACENE, 57-97-6, Dose [Inhibitor]: 1.0% IN POWDERED DIET BEGINNING 1 WK POST CARCINOGEN DOSE FOR 51 WK (STUDY DURATION: 52 WK), Route [Inhibitor]: ORAL, Species: RAT, Strain/Sex: SPRAGUE-DAWLEY/FEMALE, Target Tissue: Type of Lesion: MAMMARY GLAND: FIBROADENOMA, Dose [Carcinogen]: 2.5 MG/100 G BW IN 0.5 ML SESAME OIL ONCE, Promoter: NONE USED) is on record as 15/19 (79%), 4/20 (20%), 75%, p<0.001.

Turning to `NCC[Se][Se]CCN`, the “tumour outcome (control, treated, inhibition, significance)” value (Carcinogen: 7,12-DIMETHYLBENZ[A]ANTHRACENE, 57-97-6, Dose [Inhibitor]: 0, 0.000025 MOL/KG DIET BEGINNING 2 WK PRIOR TO CARCINOGEN AND CONTINUED FOR STUDY DURATION (STUDY DURATION: 25 WK), Route [Inhibitor]: ORAL, Species: RAT, Strain/Sex: CD-1/FEMALE, Target Tissue: Type of Lesion: MAMMARY GLAND: ADENOCARCINOMA, Dose [Carcinogen]: 10 MG ONCE, Promoter: NONE USED) was 18/25 (72%), 14/25 (56%), 22%, not significant and the “tumour outcome (control, treated, inhibition, significance)” value (Carcinogen: 7,12-DIMETHYLBENZ[A]ANTHRACENE, 57-97-6, Dose [Inhibitor]: 0, 0.00004 MOL/KG DIET BEGINNING 2 WK PRIOR TO CARCINOGEN AND CONTINUED FOR STUDY DURATION (STUDY DURATION: 25 WK), Route [Inhibitor]: ORAL, Species: RAT, Strain/Sex: CD-1/FEMALE, Target Tissue: Type of Lesion: MAMMARY GLAND: ADENOCARCINOMA, Dose [Carcinogen]: 10 MG ONCE, Promoter: NONE USED) is reported as 18/25 (72%), 11/25 (44%), 39%, p<0.05.

With `O=S(=O)(O)c1ccccc1`, the “tumour outcome (control, treated, inhibition, significance)” value (Carcinogen: BETA-PROPIOLACTONE, 57-57-8, Dose [Inhibitor]: 40 UMOL IN 0.2 ML WATER 5 MIN PRIOR TO EACH CARCINOGEN DOSE (STUDY DURATION: 26 WK), Route [Inhibitor]: GAVAGE, Species: MOUSE, Strain/Sex: STRAIN-A/FEMALE, Target Tissue: Type of Lesion: FORESTOMACH: PAPILLOMA, Dose [Carcinogen]: 28 UMOL IN 0.1 ML WATER 2/WK FOR 10 WK, Promoter: NONE USED) is 100%, 100%, 0%, not significant.

With `CC(C)[C@@H]1CC[C@@H](C)C[C@H]1O`, the “tumour outcome (control, treated, inhibition, significance)” value was 50%, 42%, 16%, not significant (Carcinogen: AZOXYMETHANE, 25843-45-2, Dose [Inhibitor]: 0, 5 MG/G IN DIET FOR 22 WK BEGINNING 3 D POST LAST CARCINOGEN DOSE (STUDY DURATION: 25 WK), Route [Inhibitor]: ORAL, Species: RAT, Strain/Sex: F344/MALE, Target Tissue: Type of Lesion: DUODENUM: ADENOCARCINOMA, Dose [Carcinogen]: 15 MG/KG BW 2/WK FOR 3 WK, Promoter: NONE USED) and 82%, 88%, -7%, not significant (Carcinogen: AZOXYMETHANE, 25843-45-2, Dose [Inhibitor]: 0, 5 MG/G IN DIET FOR 22 WK BEGINNING 3 D POST LAST CARCINOGEN DOSE (STUDY DURATION: 25 WK), Route [Inhibitor]: ORAL, Species: RAT, Strain/Sex: F344/MALE, Target Tissue: Type of Lesion: LARGE BOWEL: ADENOMATOUS POLYP, Dose [Carcinogen]: 15 MG/KG BW 2/WK FOR 3 WK, Promoter: NONE USED).
